Read-outs that look alike come from different tables or passages of the source.
Legend:
[1] = mouse, plasma, 1 h
[2] = Mouse plasma stability protocol, up to 1 h (Examples 16-18)
[3] = Tissue Distribution Data for SDC-TRAP-0056
HER2 = HER2 degradation assay with BT-474 cell line (Example 12, FACS); type: cell-based, human
[4] = % Remaining of parent after 1 h incubation in mouse plasma at 37° C. (10 μM)

% Remaining (1 h) ([1]; 10 µM) | Structure (SMILES) | % Remaining (1 h) [2, 4] | % Remaining (1 h, 37° C.) ([2]; mouse plasma, 37° C.) | IC50 (HER2) | also measured
77.4% | CCNC(=O)c1nnc(-c2cc(C(C)C)c(O)cc2O)n1-c1ccc(Oc2ccc(C(=O)N[C@@H](CC(C)C)C(=O)Nc3cccc4c3CN(C3CCC(=O)NC3=O)C4=O)cc2)cc1 (stereo partly drawn) [SDC-TRAP-0191, 5-(2,4-dihydroxy-5-isopropylphenyl)-4-(4-(4-(((2S)-1-((2-(2,6-dioxopiperidin-3-yl)-1-oxoisoindolin-4-yl)amino)-4-methyl-1-oxopentan-2-yl)carbamoyl)phenoxy)phenyl)-N-ethyl-4H-1,2,4-triazole-3-carboxamide] |  |  |  | 
63.2% | CO[C@H]1/C=C\C=C(/C)C(=O)NC2=CC(=O)C(NCCCCCCNC(=O)c3ncn4c(=O)n(C)nnc34)=C(C[C@@H](C)C[C@H](OC)[C@@H](O)[C@@H](C)/C=C(\C)[C@@H]1OC(N)=O)C2=O [SDC-TRAP-0267, (4E,6Z,8S,9S,10E,12S,13S,14S,16R)-13-hydroxy-8,14-dimethoxy-4,10,12,16-tetramethyl-19-((6-(3-methyl-4-oxo-3,4-dihydroimidazo[5,1-d][1,2,3,5]tetrazine-8-carboxamidohexyl)amino)-3,20,22-trioxo-2-azabicyclo[16.3.1]docosa-1(21),4,6,10,18-pentaen-9-yl carbamate] |  |  |  | 
93.0% | CCNC(=O)c1nnc(-c2cc(C(C)C)c(O)cc2O)n1-c1ccc(CN2CCC(C(=O)N[C@H](C(=O)Nc3cccc4c3CN(C3CCC(=O)NC3=O)C4=O)C(C)C)CC2)cc1 (stereo partly drawn) [SDC-TRAP-0163, 1-(4-(3-(2,4-dihydroxy-5-isopropylphenyl)-5-(ethylcarbamoyl)-4H-1,2,4-triazol-4-yl)benzyl)-N-((2S)-1-((2-(2,6-dioxopiperidin-3-yl)-1-oxoisoindolin-4-yl)amino)-3-methyl-1-oxobutan-2-yl)piperidine-4-carboxamide] |  |  |  | 
95.2% | COc1ccc(-c2cnoc2-c2cc(OC)c(OC)c(OC)c2)cc1OC(=O)N1CCN(c2ccc(-n3c(O)nnc3-c3cc(C(C)C)c(O)cc3O)cc2)CC1 [SDC-TRAP-0099, 2-methoxy-5-(5-(3,4,5-trimethoxyphenyl)isoxazol-4-yl)phenyl-4-(4-(3-(2,4-dihydroxy-5-isopropylphenyl)-5-hydroxy-4H-1,2,4-triazol-4-yl)phenyl) piperazine-1-carboxylate] |  |  |  | 
112% | CCNC(=O)c1nnc(-c2cc(C(C)C)c(O)cc2O)n1-c1ccc(CN2CCC(C(=O)N3CCC(COC(=O)Nc4cccc5c4CN(C4CCC(=O)NC4=O)C5=O)CC3)CC2)cc1 (stereo not shown) [SDC-TRAP-0124, (1-(1-(4-(3-(2,4-Dihydroxy-5-isopropylphenyl)-5-(ethylcarbamoyl)-4H-1,2,4-triazol-4-yl)benzyl)piperidine-4-carbonyl)piperidin-4-yl)methyl (2-(2,6-dioxopiperidin-3-yl)-1-oxoisoindolin-4-yl)carbamate] |  |  |  | 
 | CCc1c2c(nc3ccc(O)cc13)-c1cc3c(c(=O)n1C2)COC(=O)C3(CC)OC(=O)CN1CCN(c2ccc(-n3c(O)nnc3-c3cc(C(C)C)c(O)cc3O)cc2)CC1 (stereo not shown) [SDC-TRAP-0056, 4,11-diethyl-9-hydroxy-3,14-dioxo-3,4,12,14-tetrahydro-1H-pyrano[3′,4′:6,7]indolizino[1,2-b]quinolin-4-yl 2-(4-(4-(3-(2,4-dihydroxy-5-isopropylphenyl)-5-hydroxy-4H-1,2,4-triazol-4-yl)phenyl)piperazin-1-yl)acetate] | 78.4% | 78% | 1.27 µM | Plasma Conc. ([3]; Time (h) 0.083): 1220 µM; Tumor Conc. ([3]; Time (h) 0.083): 6.40 nmol/g of tissue; Tumor/Plasma Ratio ([3]; Time (h) 0.083): 0.00525; Plasma Conc. ([3]; Time (h) 6): 2.06 µM; Tumor Conc. ([3]; Time (h) 6): 2.65 nmol/g of tissue; Tumor/Plasma Ratio ([3]; Time (h) 6): 1.28; Plasma Conc. ([3]; Time (h) 12): 0.382 µM; Tumor Conc. ([3]; Time (h) 12): 0.746 nmol/g of tissue; Tumor/Plasma Ratio ([3]; Time (h) 12): 1.95; Plasma Conc. ([3]; Time (h) 24): 0.0343 µM; Tumor Conc. ([3]; Time (h) 24): BQL; Plasma Conc. ([3]; Time (h) 48): BQL; Tumor Conc. ([3]; Time (h) 48): BQL
 | CCNC(=O)c1nnc(-c2cc(C(C)C)c(O)cc2O)n1-c1ccc(C(=O)N2CCN(C(=O)COC(=O)OC3(CC)C(=O)OCc4c3cc3n(c4=O)Cc4c-3nc3ccc(O)cc3c4CC)CC2)cc1 (stereo not shown) [SDC-TRAP-0202, 4,11-diethyl-9-hydroxy-3,14-dioxo-3,4,12,14-tetrahydro-1H-pyrano[3′,4′:6,7]indolizino[1,2-b]quinolin-4-yl (2-(4-(4-(3-(2,4-dihydroxy-5-isopropylphenyl)-5-(ethylcarbamoyl)-4H-1,2,4-triazol-4-yl)benzoyl)piperazin-1-yl)-2-oxoethyl) carbonate] | 21.2% | 21.2% | > 5 µM | 
 | CCc1c2c(nc3ccc(OC(=O)N(C)C4CCN(C(=O)CCn5ccc6cc(-n7c(O)nnc7-c7cc(C(C)C)c(O)cc7O)ccc65)CC4)cc13)-c1cc3c(c(=O)n1C2)COC(=O)C3(O)CC (stereo not shown) [SDC-TRAP-0184, 4,11-diethyl-4-hydroxy-3,14-dioxo-3,4,12,14-tetrahydro-1H-pyrano[3′,4′:6,7]indolizino[1,2-b]quinolin-9-yl (1-(3-(5-(3-(2,4-dihydroxy-5-isopropylphenyl)-5-hydroxy-4H-1,2,4-triazol-4-yl)-1H-indol-1-yl)propanoyl)piperidin-4-yl)(methyl)carbamate] | 18.0% | 18.0% | 4 µM | % Remaining (1 h) ([2]; mouse plasma, 37° C., 10 μM): 18.0%
 | CCNC(=O)c1nnc(-c2cc(C(C)C)c(O)cc2O)n1-c1ccc(Oc2ccc(OC(=O)N(C)CCOC(=O)Nc3cccc4c3CN(C3CCC(=O)NC3=O)C4=O)cc2)cc1 (stereo not shown) | 51.2% |  | 2.86 µM | 
 | CCNC(=O)c1nnc(-c2cc(C(C)C)c(O)cc2O)n1-c1ccc(OC2CCN(C(=O)C3CCN(C(=O)Oc4ccc5nc6c(c(CC)c5c4)Cn4c-6cc5c(c4=O)COC(=O)[C@]5(O)CC)C(C)C3)CC2)cc1 (stereo partly drawn) [SDC-TRAP-0213, (S)-4,11-diethyl-4-hydroxy-3,14-dioxo-3,4,12,14-tetrahydro-1H-pyrano[3′,4′:6,7]indolizino[1,2-b]quinolin-9-yl 4-(4-(4-(3-(2,4-dihydroxy-5-isopropylphenyl)-5-(ethylcarbamoyl)-4H-1,2,4-triazol-4-yl)phenoxy)piperidine-1-carbonyl)-2-methylpiperidine-1-carboxylate] | 74.7% | 74.7% | 0.248 µM | 
 | CCc1c2c(nc3ccc(OC(=O)N4CCCCC4C(=O)N4CCC(CCn5ccc6cc(-n7c(O)nnc7-c7cc(C(C)C)c(O)cc7O)ccc65)CC4)cc13)-c1cc3c(c(=O)n1C2)COC(=O)[C@]3(O)CC (stereo partly drawn) [SDC-TRAP-0215, (S)-4,11-diethyl-4-hydroxy-3,14-dioxo-3,4,12,14-tetrahydro-1H-pyrano[3′,4′:6,7]indolizino[1,2-b]quinolin-9-yl 2-(4-(2-(5-(3-(2,4-dihydroxy-5-isopropylphenyl)-5-hydroxy-4H-1,2,4-triazol-4-yl)-1H-indol-1-yl)ethyl)piperidine-1-carbonyl)piperidine-1-carboxylate] |  | 77.2% | 2.75 µM | 
 | CCNC(=O)c1nnc(-c2cc(C(C)C)c(O)cc2O)n1-c1ccc(CN2CCC(C(=O)N3CCN(C(=O)Oc4ccc5nc6c(c(CC)c5c4)Cn4c-6cc5c(c4=O)COC(=O)C5(O)CC)C(C)C3)CC2)cc1 (stereo not shown) [SDC-TRAP-0185, 4,11-diethyl-4-hydroxy-3,14-dioxo-3,4,12,14-tetrahydro-1H-pyrano[3′,4′:6,7]indolizino[1,2-b]quinolin-9-yl 4-(1-(4-(3-(2,4-dihydroxy-5-isopropylphenyl)-5-(ethylcarbamoyl)-4H-1,2,4-triazol-4-yl)benzyl)piperidine-4-carbonyl)-2-methylpiperazine-1-carboxylate] | 68.1% | 68.1% | 0.038 µM | % Remaining (1 h) ([2]; mouse plasma, 37° C., 10 μM): 68.1%

Structure (SMILES) | % Remaining (1 h) ([1]; 10 µM) | % Remaining (1 h) [2, 4] | % Remaining (1 h, 37° C.) ([2]; mouse plasma, 37° C.) | IC50 (HER2) | also measured
CCc1c2c(nc3ccc(OS(=O)(=O)c4cccc(C(=O)N5CCN(Cc6ccc(-n7c(O)nnc7-c7cc(C(C)C)c(O)cc7O)cc6)CC5)c4)cc13)-c1cc3c(c(=O)n1C2)COC(=O)C3(O)CC (stereo not shown) [SDC-TRAP-0389, 4,11-diethyl-4-hydroxy-3,14-dioxo-3,4,12,14-tetrahydro-1H-pyrano[3′,4′:6,7]indolizino[1,2-b]quinolin-9-yl 3-(4-(4-(3-(2,4-dihydroxy-5-isopropylphenyl)-5-hydroxy-4H-1,2,4-triazol-4-yl)benzyl)piperazine-1-carbonyl)benzenesulfonate] | 77.7% |  |  |  | 
CCc1c2c(nc3ccc(OS(=O)(=O)c4ccc(C(=O)N5CCC(CCn6ccc7cc(-n8c(O)nnc8-c8cc(C(C)C)c(O)cc8O)ccc76)CC5)cc4)cc13)-c1cc3c(c(=O)n1C2)COC(=O)C3(O)CC (stereo not shown) [SDC-TRAP-0390, 4,11-diethyl-4-hydroxy-3,14-dioxo-3,4,12,14-tetrahydro-1H-pyrano[3′,4′:6,7]indolizino[1,2-b]quinolin-9-yl 4-(4-(2-(5-(3-(2,4-dihydroxy-5-isopropylphenyl)-5-hydroxy-4H-1,2,4-triazol-4-yl)-1H-indol-1-yl)ethyl)piperidine-1-carbonyl)benzenesulfonate] | 92.5% |  |  |  | 
CC(C)c1cc(-c2nnc(O)n2-c2ccc(CN3CCN(C(=O)O[C@H]4CC[C@@]5(C)C(=CC[C@@H]6[C@@H]5CC[C@]5(C)C(c7cccnc7)=CC[C@@H]65)C4)CC3)cc2)c(O)cc1O [SDC-TRAP-0150, (3S,8R,9S,10R,13S,14S)-10,13-dimethyl-17-(pyridin-3-yl)-2,3,4,7,8,9,10,11,12,13,14,15-dodecahydro-1H-cyclopenta[a]phenanthren-3-yl 4-(4-(3-(2,4-dihydroxy-5-isopropylphenyl)-5-hydroxy-4H-1,2,4-triazol-4-yl)benzyl) piperazine-1-carboxylate] | 103% |  |  |  | % Remaining (1 h) ([1]; 10 μM): 103%

Reference: patent publication US10828315B2 (Madrigal Pharmaceuticals, Inc., priority 2013, dated 2020)
